The NIST ThermoML archive (doi:10.1021/je1001413)

Settings: Liquid, Vibrating tube method

CC(C)CCCCCCCOC(=O)c1ccccc1C(=O)OCCCCCCCC(C)C
Settings	mass density [kg/m3]
283.15 K, 100 kPa	974.5
283.15 K, 200 kPa	974.5
283.15 K, 400 kPa	974.6
283.15 K, 600 kPa	974.7
283.15 K, 800 kPa	974.9
283.15 K, 1010 kPa	975
283.15 K, 2000 kPa	975.5
283.15 K, 3020 kPa	976
283.15 K, 4000 kPa	976.6
283.15 K, 5000 kPa	977.1
283.15 K, 6000 kPa	977.7
283.15 K, 6980 kPa	978.2
283.15 K, 8010 kPa	978.7
283.15 K, 9020 kPa	979.3
283.15 K, 10030 kPa	979.8
283.15 K, 15000 kPa	982.4
283.15 K, 19970 kPa	985
283.15 K, 25030 kPa	987.3
283.15 K, 29980 kPa	989.8
283.15 K, 35030 kPa	992.1
283.15 K, 40000 kPa	994.5
283.15 K, 45030 kPa	996.6
283.15 K, 49980 kPa	998.8
283.15 K, 55030 kPa	1000.9
283.15 K, 59990 kPa	1002.6
283.15 K, 64990 kPa	1005.1
288.15 K, 100 kPa	970.7
288.15 K, 200 kPa	970.8
288.15 K, 420 kPa	970.9
288.15 K, 600 kPa	971
288.15 K, 790 kPa	971.1
288.15 K, 1000 kPa	971.2
288.15 K, 1990 kPa	971.7
288.15 K, 3020 kPa	972.3
288.15 K, 4010 kPa	972.9
288.15 K, 5000 kPa	973.4
288.15 K, 6010 kPa	974
288.15 K, 7020 kPa	974.5
288.15 K, 7980 kPa	975
288.15 K, 9000 kPa	975.5
288.15 K, 10000 kPa	976.1
288.15 K, 14990 kPa	978.7
288.15 K, 19970 kPa	981.4
288.15 K, 25000 kPa	983.8
288.15 K, 30000 kPa	986.4
288.15 K, 34990 kPa	988.8
288.15 K, 40020 kPa	991.1
288.15 K, 45000 kPa	993.3
288.15 K, 49980 kPa	995.7
288.15 K, 54980 kPa	997.7
288.15 K, 60000 kPa	999.9
288.15 K, 65000 kPa	1002
293.15 K, 100 kPa	967
293.15 K, 200 kPa	967.1
293.15 K, 400 kPa	967.2
293.15 K, 630 kPa	967.3
293.15 K, 790 kPa	967.4
293.15 K, 1000 kPa	967.5
293.15 K, 2010 kPa	968.1
293.15 K, 3020 kPa	968.7
293.15 K, 4020 kPa	969.2
293.15 K, 4970 kPa	969.8
293.15 K, 5980 kPa	970.3
293.15 K, 7020 kPa	970.9
293.15 K, 8000 kPa	971.5
293.15 K, 9020 kPa	972
293.15 K, 10010 kPa	972.6
293.15 K, 15010 kPa	975.2
293.15 K, 20000 kPa	977.9
293.15 K, 25030 kPa	980.5
293.15 K, 30020 kPa	983
293.15 K, 35030 kPa	985.4
293.15 K, 40010 kPa	987.8
293.15 K, 44980 kPa	990.1
293.15 K, 50020 kPa	992.4
293.15 K, 55020 kPa	994.6
293.15 K, 60020 kPa	996.8
293.15 K, 65000 kPa	998.9
298.15 K, 100 kPa	963.4
298.15 K, 200 kPa	963.4
298.15 K, 410 kPa	963.6
298.15 K, 620 kPa	963.7
298.15 K, 820 kPa	963.8
298.15 K, 1000 kPa	963.9
298.15 K, 2020 kPa	964.5
298.15 K, 3040 kPa	965
298.15 K, 4030 kPa	965.7
298.15 K, 4980 kPa	966.2
298.15 K, 6070 kPa	966.8
298.15 K, 7020 kPa	967.3
298.15 K, 8040 kPa	967.9
298.15 K, 9040 kPa	968.5
298.15 K, 10030 kPa	969
298.15 K, 15010 kPa	971.7
298.15 K, 19990 kPa	974.4
298.15 K, 25000 kPa	977
298.15 K, 30020 kPa	979.6
298.15 K, 35000 kPa	982.1
298.15 K, 40020 kPa	984.5
298.15 K, 44970 kPa	986.9
298.15 K, 49990 kPa	989.2
298.15 K, 54970 kPa	991.4
298.15 K, 60000 kPa	993.7
298.15 K, 65020 kPa	995.8
303.15 K, 100 kPa	959.7
303.15 K, 200 kPa	959.8
303.15 K, 400 kPa	959.9
303.15 K, 580 kPa	960
303.15 K, 800 kPa	960.2
303.15 K, 1000 kPa	960.3
303.15 K, 2000 kPa	960.9
303.15 K, 2990 kPa	961.4
303.15 K, 4000 kPa	962
303.15 K, 5000 kPa	962.6
303.15 K, 6000 kPa	963.2
303.15 K, 7000 kPa	963.8
303.15 K, 7980 kPa	964.3
303.15 K, 9000 kPa	964.9
303.15 K, 10020 kPa	965.5
303.15 K, 14970 kPa	968.2
303.15 K, 20010 kPa	971
303.15 K, 25030 kPa	973.6
303.15 K, 30020 kPa	976.3
303.15 K, 35000 kPa	978.8
303.15 K, 40000 kPa	981.2
303.15 K, 45000 kPa	983.6
303.15 K, 50010 kPa	986
303.15 K, 54980 kPa	988.3
303.15 K, 60000 kPa	990.5
303.15 K, 64990 kPa	992.7
308.15 K, 100 kPa	956.2
308.15 K, 200 kPa	956.2
308.15 K, 410 kPa	956.4
308.15 K, 610 kPa	956.5
308.15 K, 800 kPa	956.6
308.15 K, 1000 kPa	956.7
308.15 K, 2010 kPa	957.3
308.15 K, 3020 kPa	957.9
308.15 K, 4000 kPa	958.5
308.15 K, 5000 kPa	959.1
308.15 K, 6000 kPa	959.7
308.15 K, 7020 kPa	960.3
308.15 K, 8000 kPa	960.8
308.15 K, 9020 kPa	961.4
308.15 K, 10000 kPa	962
308.15 K, 15010 kPa	964.8
308.15 K, 19990 kPa	967.6
308.15 K, 25000 kPa	970.3
308.15 K, 30010 kPa	973
308.15 K, 35000 kPa	975.5
308.15 K, 39990 kPa	978
308.15 K, 44990 kPa	980.4
308.15 K, 50010 kPa	982.9
308.15 K, 55000 kPa	985.2
308.15 K, 60000 kPa	987.4
308.15 K, 65000 kPa	989.7
